Reference: patent publication US20260085081A1, “PHOSPHATIDYLAMINE COMPOUNDS INCLUDING A PLURALITY OF TERTIARY AMINO GROUP STRUCTURES AND COMPOSITIONS THEREOF” (PEKING UNIVERSITY, priority 2022, published 2026)

Assays:
[1] = tested on: white adipocyte; experiment: White adipocyte administration, expression relative to SM102; format: cell-based; settings: for White adipocyte administration (PL/SM102) expression strength level: ratio of expression PL/SM102; for expression compared with control SM102: white adipocyte administration
Excerpt: (§1) Finally, the expression levels of lipid nanoparticles with a plurality of tertiary amine groups from the embodiments of the present disclosure after intramuscular injection, white adipocyte administration, and intraperitoneal injection are summarized, and compared with lipid nanoparticles prepared from commercially available cationic lipids MC3 and SM102. […] However, the expression rates of the phosphatidylamine lipids with a plurality of tertiary amine groups from embodiments of the present disclosure are higher than that of SM102.

[2] = Summary of the strongest expressions over the administration routes; settings: strongest level of the three administrations
Excerpt: as §1

[3] = tested on: Fluc-mRNA (luciferase expression); experiment: In vivo transfection efficiency of Fluc-mRNA lipid nanoparticles after intramuscular injection; design: species or system mice; settings: for Intramuscular injection (PL/MC3) expression strength level: ratio of expression PL/MC3; for in vivo transfection (expression, FIG. 5): weight ratio lipid nanoparticle/RNA 10:1, DOPE or DSPC group; for in vivo transfection (expression, FIG. 5) / expression in vivo compared with control MC3: 3 μg Fluc-mRNA/mouse; for expression in vivo compared with control MC3: DOPE group, weight ratio 10:1
Description: 6 h after intramuscular injection of mRNA LNPs, mice were injected intraperitoneally with 0.2 mL […] (20 mg/mL PBS solution). After 10 min, mice were anesthetized with isoflurane in oxygen in a ventilated anesthesia room and imaged with an imaging system (IVIS, PerkinElmer), and luminescence was quantified using Living Image software (PerkinElmer).

[4] = tested on: adipose tissue; experiment: Intraperitoneal injection of Fluc-mRNA LNPs, expression and distribution; format: in vivo, mice; settings: for expression compared with control SM102: intraperitoneal injection; for Intraperitoneal injection (PL/SM102) expression strength level: ratio of expression PL/SM102
Description: FIG. 10 illustrates the effect of Fluc-mRNA LNPs composed of different structural cationic lipids on the mRNA delivery efficiency after intraperitoneal administration according to some embodiments of the present disclosure. Targeting and expression of PL lipids on adipose tissue after intraperitoneal administration is also evaluated. […] That is to say, the PL lipid structure with the plurality of tertiary amino group structures may enhance the selective targeting of visceral adipocytes. […]
as §1

Row | SMILES | White adipocyte administration (PL/SM102) expression strength level [1] | Summary of the strongest expressions [2] | Intramuscular injection (PL/MC3) expression strength level [3] | in vivo transfection (expression, FIG. 5) [3] | expression compared with control SM102 [4] | Intraperitoneal injection (PL/SM102) expression strength level [4] | expression compared with control SM102 [1] | expression in vivo compared with control MC3 [3]
1 | CCCCCCCCCCC(CCCCCCCCCC)CNCCCN1CCN(CCCNP(=O)(OCCCCCCCC(=O)OC(CCCCCCCC)CCCCCCCC)OCCCCCCCC(=O)OC(CCCCCCCC)CCCCCCCC)CC1 [PL41] | C (C: ≥0.1 and <1) | A (A: ≥2) | A (A: ≥2) | expressed | – | – | – | –
2 | CCCCC/C=C\C/C=C\C/C=C\CCCCCOP(=O)(NCCCN1CCN(CCCN(CCCCCCCCCCCC)CCCCCCCCCCCC)CC1)OCCCCC/C=C\C/C=C\C/C=C\CCCCC [PL94] | – | A (A: ≥2) | – | – | superior to that of the control SM102 | A (A: ≥2) | – | –
3 | CCCCC/C=C\C/C=C\CCCCCCCCOP(=O)(NCCCN1CCN(CCCN(CCCCCCC(=O)OC(CCCCCCCC)CCCCCCCC)CCCCCCC(=O)OC(CCCCCCCC)CCCCCCCC)CC1)OCCCCCCCC/C=C\C/C=C\CCCCC [PL28] | C (C: ≥0.1 and <1) | A (A: ≥2) | A (A: ≥2) | expressed | – | – | – | –
4 | CC/C=C\C/C=C\C/C=C\C/C=C\C/C=C\CCCC(=O)OCCCCCCOP(=O)(NCCCN1CCN(CCCN(CC(O)CCCCCCCCCC)CC(O)CCCCCCCCCC)CC1)OCCCCCCOC(=O)CCC/C=C\C/C=C\C/C=C\C/C=C\C/C=C\CC (stereo not drawn) [PL79] | B (B: ≥1 and <2) | B (B: ≥1 and <2) | – | – | – | C (C: ≥0.1 and <1) | superior to that of the control SM102 | –
5 | CCCCCCCCCCCCN(CCCCCCCCCCCC)CCCN1CCN(CCCNP(=O)(OCCCCCCCC(=O)OC(C)CC(=O)OCC)OCCCCCCCC(=O)OC(C)CC(=O)OCC)CC1 (stereo not drawn) [PL97] | – | C (C: ≥0.1 and <1) | – | – | – | C (C: ≥0.1 and <1) | – | –
6 | CCC/C=C\C/C=C\C/C=C\C/C=C\C/C=C\C/C=C\CCC(=O)OCCCCCCOP(=O)(NCCCN1CCN(CCCN(CCCCCCCCCCCC)CCCCCCCCCCCC)CC1)OCCCCCCOC(=O)CC/C=C\C/C=C\C/C=C\C/C=C\C/C=C\C/C=C\CCC [PL61] | C (C: ≥0.1 and <1) | C (C: ≥0.1 and <1) | – | – | – | D (D: <0.1) | – | –
7 | CCCCC/C=C\C/C=C\C/C=C\CCCCC(=O)OCCOP(=O)(NCCCN1CCN(CCCN(CCCCCCCCCCCC)CCCCCCCCCCCC)CC1)OCCOC(=O)CCCC/C=C\C/C=C\C/C=C\CCCCC [PL93] | – | A (A: ≥2) | – | – | superior to that of the control SM102 | A (A: ≥2) | – | –
8 | CCCCC/C=C\C/C=C\CCCCCCCCOP(=O)(NCCN(CCN(CCN(C)C)CC(O)CCCCCCCCCC)CC(O)CCCCCCCCCC)OCCCCCCCC/C=C\C/C=C\CCCCC (stereo not drawn) [PL20] | B (B: ≥1 and <2) | B (B: ≥1 and <2) | – | – | superior to that of the control SM102 | B (B: ≥1 and <2) | superior to that of the control SM102 | –
9 | CCCCCCCCCCCCN(CCCCCCCCCCCC)CCCN1CCN(CCCNP(=O)(OCC(CCCCCC)CCCCCCCC)OCC(CCCCCC)CCCCCCCC)CC1 (stereo not drawn) [PL33] | – | A (A: ≥2) | A (A: ≥2) | expressed | – | – | – | –
10 | CCCCC/C=C\C/C=C\CCCCCCCCOP(=O)(NCCCN1CCN(CCCNCC(CCCCCC)CCCCCCCC)CC1)OCCCCCCCC/C=C\C/C=C\CCCCC (stereo not drawn) [PL44] | C (C: ≥0.1 and <1) | C (C: ≥0.1 and <1) | C (C: ≥0.1 and <1) | – | – | – | – | –
11 | CCCCCCCCC(CCCCCC)CNCCCN1CCN(CCCNP(=O)(OCC(CCCCCC)CCCCCCCC)OCC(CCCCCC)CCCCCCCC)CC1 (stereo not drawn) [PL45] | C (C: ≥0.1 and <1) | C (C: ≥0.1 and <1) | C (C: ≥0.1 and <1) | – | – | – | – | –
12 | CCCCCCCCCCCCN(CCCCCCCCCCCC)CCCN1CCN(CCCNP(=O)(OCCCCCCCC(=O)OC(CCCCCCCC)CCCCCCCC)OCCCCCCCC(=O)OC(CCCCCCCC)CCCCCCCC)CC1 [PL31] | D (D: <0.1) | A (A: ≥2) | A (A: ≥2) | expressed | – | – | – | better than that of control MC3
13 | CCCCC/C=C\C/C=C\CCCCCCCCOP(=O)(NCCCN1CCN(CCCN(CCCCCCCCCCCC)CCCCCCCCCCCC)CC1)OCCCCCCCC(=O)OC(CC)CCCCCCCC (stereo not drawn) [PL103] | – | A (A: ≥2) | A (A: ≥2) | expressed | – | – | – | –
14 | CCCCCCCCCCCCN(CCCCCCCCCCCC)CCCN1CCN(CCCNP(=O)(OCCC(C)CCCC(C)CCCC(C)CCCC(C)C)OCCC(C)CCCC(C)CCCC(C)CCCC(C)C)CC1 (stereo not drawn) [PL95] | – | A (A: ≥2) | – | – | superior to that of the control SM102 | A (A: ≥2) | – | –
15 | CCCCC/C=C\C/C=C\CCCCCCCCOP(=O)(NCCN1CCN(CCOC(=O)CCN(CCCCCCCCCCCC)CCCCCCCCCCCC)CC1)OCCCCCCCC/C=C\C/C=C\CCCCC [PL26] | C (C: ≥0.1 and <1) | A (A: ≥2) | A (A: ≥2) | expressed | – | – | – | better than that of control MC3
16 | CCCCC/C=C\C/C=C\CCCCCCCCOP(=O)(NCCCN1CCN(CCCN(CCCCCCCCCCCC)CCCCCCCCCCCC)CC1)OCCCCCCCC(=O)OC(CCCCCCCC)CCCCCCCC (stereo not drawn) [PL30] | D (D: <0.1) | A (A: ≥2) | A (A: ≥2) | expressed | – | – | – | better than that of control MC3
17 | CCCCCCCC/C=C\CCOC(=O)CCCOP(=O)(NCCN(CCCCCCCCCCCC)CCCN(C)C)OCCCC(=O)OCC/C=C\CCCCCCCC [PL13] | D (D: <0.1) | A (A: ≥2) | A (A: ≥2) | expressed | – | – | – | –
18 | CCCCCCCCCCCCN(CCCCCCCCCCCC)CCCN1CCN(CCCNP(=O)(OCCOC(=O)CC(C)CCCC(C)CCCC(C)CCCC(C)C)OCCOC(=O)CC(C)CCCC(C)CCCC(C)CCCC(C)C)CC1 (stereo not drawn) [PL96] | – | C (C: ≥0.1 and <1) | – | – | – | C (C: ≥0.1 and <1) | – | –
19 | CCCCCCCCCCC(CCCCCCCCCC)CN(CCCN1CCN(CCCNP(=O)(OCCCCCCCC(=O)OC(CCCCCCCC)CCCCCCCC)OCCCCCCCC(=O)OC(CCCCCCCC)CCCCCCCC)CC1)CC(CCCCCCCCCC)CCCCCCCCCC [PL36] | C (C: ≥0.1 and <1) | C (C: ≥0.1 and <1) | – | – | – | – | – | –
20 | CCCCCCCCCCCCN(CCCCCCCCCCCC)CCCN1CCN(CCCNP(=O)(OCCCCCCCC(=O)OC(CC)CCCCCCCC)OCCCCCCCC(=O)OC(CC)CCCCCCCC)CC1 (stereo not drawn) [PL32] | – | A (A: ≥2) | A (A: ≥2) | expressed | – | – | – | –
21 | CCCCC/C=C\C/C=C\CCCCCCCCOP(=O)(NCCCN1CCN(CCCN(CCCCCCC(=O)OC(CC)CCCCCCCC)CCCCCCC(=O)OC(CC)CCCCCCCC)CC1)OCCCCCCCC/C=C\C/C=C\CCCCC (stereo not drawn) [PL29] | B (B: ≥1 and <2) | A (A: ≥2) | A (A: ≥2) | expressed | – | – | superior to that of the control SM102 | better than that of control MC3
